Results: patent US20030165575A1, “Methods and compositions for treatment and diagnosis of alzheimer disease and other disorders” (Research Foundation for Mental Hygeine, Inc., priority 1994, published 2003)

Tests used:
PP-1 [1] = experiment: Effect of effectors on dephosphorylation of AD P-tau by PP-1 (immunoblot); format: biochemical, rabbit; conditions: for Effect on dephosphorylation of AD P-tau by PP-1: 1.0 mM Mn2+ or 10 mM Mg2+ versus 1.0 mM EDTA, PHF-1 immunoblot (Ser-396)
Description: Unless otherwise stated, dephosphorylation of AD P-tau was carried out at 30° C. in 50 mM Tris, pH 7.0, 10 mM β-mecaptoethanol, 0.1 mg/ml BSA, 50 μg/ml AD P-tau and PP-1, PP-2B or PP-2C. In some experiments, several effectors were added in the reaction mixture (see Results section). The reaction was started by addition of the enzyme. After appropriate incubation times (see Figure legends), reactions were stopped by addition of 5 volumes of cold acetone to precipitate proteins. The precipitated protein samples were dissolved in SDS-PAGE sample buffer (60 mM Tris-HCl, […], 3% SDS, 5% β-mercaptoethanol, 10% glycerol and 0.05% bromophenol blue) and heated at 95° C. for 4 min, followed by 10% SDS-PAGE.

PP-2A2 [2] = molecular target: T1, PP-2A2 (Rattus norvegicus, UniProt P63331); experiment: Effect of Mn2+, Mg2+ and polylysine on dephosphorylation of AD P-tau by PP-2A2; format: biochemical; set-up: PP-2A1 and PP-2A2 were purified from rat brain basically as described by Cohen et al; tissue gift of Dr. S. Jaspers, University of Massachusetts; host or cells: rat brain; conditions: 2.0 mM MnCl2, 2.0 mM MgCl2 or 10 μM polylysine versus 1.0 mM EDTA; Tau-1 immunoblot
Source text: (§1) Phosphorylase, calmodulin, and poly-L-lysine (molecular weight 4,000-15,000) were purchased from Sigma, St. Louis, Mo. […] L. 1. Binder, University of Alabama, Birmingham, Ala.; A. Van de Voorde, Innogenetics, Industriepark Zwijinaarde, Belgium; and S. Greenberg, Burke Medical Research Institute, White Plains, N.Y., respectively. SMI33, SMI31, SMI34, goat anti-mouse IgG and peroxidase-anti-peroxidase complex were purchased from Sternberger Monoclonals Inc., Baltimore, Md. Alkaline phosphatase-conjugated goat anti-mouse and anti-rabbit IgG were purchased from Bio-Rad, Hercules, Calif.
(§2) In some experiments, Mn^2+ in the reaction mixture was replaced by other effectors (see Figure legends). In the reaction mixture for PP-2B, MnCl2 was substituted with-1.0 mM NiCl2, 1.0 mM CaCl2 and 1.0 μM calmodulin. The reaction was started by the addition of enzymes. After appropriate incubation times (see Figure legends), reactions were stopped by the addition of 5 volumes of cold acetone to precipitate proteins. Dephosphorylation was monitored by immunoblotting with the phosphorylation-dependent antibodies described below.
(§3) Res. Commun. […] Antibody AT8 was used at a concentration of 2.0 μg/ml. […] The intensity of immunostaining of-some blots with Tau-1 was scanned by using a Shimadzu dual-wavelength flying-spot scanner.

PP-2A = experiment: Effect of effectors on dephosphorylation of AD P-tau by PP-2A (immunoblot); format: biochemical, rat
Source text: as §1, §2, §3

PP-2A2 [3] = molecular target: T1, PP-2A2; conditions: data not shown
PP-2B = molecular target: T2, PP-2B (Bos taurus, UniProt P48452); experiment: Effect of effectors on dephosphorylation of AD P-tau by PP-2B (immunoblot); format: biochemical, bovine; conditions: for Activity of PP-2B towards AD P-tau with divalent cation in the presence of Ca2+ and calmodulin: 1.0 mM CaCl2, 1.0 μM calmodulin plus 1.0 mM NiCl2, 1.0 mM MnCl2 or 10 mM MgCl2; for Activity of PP-2B towards AD P-tau with divalent cation in the presence of Ca2+ and calmodulin / Magnitude of dephosphorylation of AD P-tau by PP-2B with the cation alone compared to inclusion of Ca2+ and calmodulin: Tau-1 immunoblot; for Magnitude of dephosphorylation of AD P-tau by PP-2B with the cation alone compared to inclusion of Ca2+ and calmodulin: 1.0 mM MnCl2 or 1.0 mM NiCl2 alone; for Concentration of metal ion for maximal dephosphorylation of AD P-tau by PP-2B / Concentration of metal ion that activated the dephosphorylation of AD P-tau by PP-2B: in the presence of 1.0 mM Ca2+ and 1.0 μM calmodulin
T2 construct: PP-2B (holoezyme) was purified from bovine brain according to the method of Sharma et al; from tissue; host or cells: bovine brain
Description: Rabbit skeletal muscle PP-1 was purchased from Upstate Bioteehnology Inc., Lake Placid, N.Y. Rat brain PP-2A1 and PP-2A2 were kindly provided by Dr. S. Jaspers of University of Massachusetts. […] Phosphorylase and calmodulin were purchased from Sigma, St. Louis, Mo. […] Alkaline phosphatase-conjugated goat anti-mouse and anti-rabbit IgG were purchased from Bio-Rad, Hercules, Calif.
Unless otherwise stated, dephosphorylation of AD P-tau was carried out at 30° C. in 50 mM Tris, pH 7.0, 10 mM β-mecaptoethanol, 0.1 mg/ml BSA, 50 μg/ml AD P-tau and PP-1 PP-2A or PP-2B. The reaction was started by addition of enzyme and stopped by addition of 5 volumes of cold acetone. The precipitated protein samples were dissolved in sodium dodecyl sulfate-polyacrylamide gel electrophoresis (SDS-PAGE) sample buffer and heated at 95° C. for 4 min, followed by 10% SDS-PAGE. […] Antiserum 92e is a phosphorylation-independent antibody which recognizes both AD P-tau and normal tau.

PP-2C = PP-2C activity with [32P]phosphorylase kinase as substrate; format: biochemical, bovine; conditions: no activity detected in the absence of Mg2+ or Mn2+
Description: (§4) For PP-2B and PP-2C activities, MnCl2 was substituted by 1.0 mM CaCl2 and 10 μM calmodulin, and 10 mM MgCl2, respectively.

PP-2A1 [4] = molecular target: T3, PP-2A1 (Rattus norvegicus, UniProt P63331); experiment: Effect of Mn2+, Mg2+ and polylysine on dephosphorylation of AD P-tau by PP-2A1; format: biochemical; conditions: 2.0 mM MnCl2, 2.0 mM MgCl2 or 10 μM polylysine versus 1.0 mM EDTA; Tau-1 immunoblot
T3 construct: PP-2A1 and PP-2A2 were purified from rat brain basically as described by Cohen et al; tissue gift of Dr. S. Jaspers, University of Massachusetts; host or cells: rat brain
Source text: as §1, §2, §3

PP-1 [5] = experiment: PP-1 activity with [32P]phosphorylase kinase as substrate; format: biochemical, rabbit; conditions: 1.0 mM Mn2+ or 10 mM Mg2+
Description: as §4

PP-2A1 [6] = molecular target: T3, PP-2A1; experiment: PP-2A1 activity with [32P]phosphorylase as substrate; format: biochemical; conditions: data not shown

T1 sequence (P63331 whole entry): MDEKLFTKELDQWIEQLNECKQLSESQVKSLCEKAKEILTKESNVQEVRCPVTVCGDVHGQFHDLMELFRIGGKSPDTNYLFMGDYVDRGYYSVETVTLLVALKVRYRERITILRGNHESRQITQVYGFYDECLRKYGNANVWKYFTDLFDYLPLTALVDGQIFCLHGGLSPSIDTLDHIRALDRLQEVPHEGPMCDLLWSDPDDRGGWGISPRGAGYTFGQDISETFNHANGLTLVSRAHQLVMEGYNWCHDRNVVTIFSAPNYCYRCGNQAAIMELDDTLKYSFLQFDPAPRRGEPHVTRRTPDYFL
T1 sequence (Q5XI34 1-589 partner): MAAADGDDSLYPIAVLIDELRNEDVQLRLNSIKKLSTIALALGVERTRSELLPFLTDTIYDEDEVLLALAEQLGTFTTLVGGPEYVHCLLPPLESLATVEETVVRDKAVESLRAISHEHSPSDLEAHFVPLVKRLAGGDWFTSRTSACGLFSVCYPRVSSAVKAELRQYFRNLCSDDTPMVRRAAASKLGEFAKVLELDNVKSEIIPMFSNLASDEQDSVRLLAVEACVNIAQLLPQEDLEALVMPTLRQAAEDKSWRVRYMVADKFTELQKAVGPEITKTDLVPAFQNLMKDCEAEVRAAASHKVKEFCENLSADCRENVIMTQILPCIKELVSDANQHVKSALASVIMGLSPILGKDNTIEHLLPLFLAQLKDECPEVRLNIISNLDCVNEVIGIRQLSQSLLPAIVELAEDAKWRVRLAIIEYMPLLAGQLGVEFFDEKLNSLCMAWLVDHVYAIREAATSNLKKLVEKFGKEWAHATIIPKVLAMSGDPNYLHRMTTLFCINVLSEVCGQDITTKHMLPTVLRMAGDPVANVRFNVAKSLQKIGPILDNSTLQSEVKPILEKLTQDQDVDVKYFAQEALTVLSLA
T3 sequence (P63331 whole entry): as the sequence (P63331 whole entry) above
T3 sequence (Q5XI34 1-589 partner): as the sequence (Q5XI34 1-589 partner) above
T3 sequence (P36876 whole entry partner): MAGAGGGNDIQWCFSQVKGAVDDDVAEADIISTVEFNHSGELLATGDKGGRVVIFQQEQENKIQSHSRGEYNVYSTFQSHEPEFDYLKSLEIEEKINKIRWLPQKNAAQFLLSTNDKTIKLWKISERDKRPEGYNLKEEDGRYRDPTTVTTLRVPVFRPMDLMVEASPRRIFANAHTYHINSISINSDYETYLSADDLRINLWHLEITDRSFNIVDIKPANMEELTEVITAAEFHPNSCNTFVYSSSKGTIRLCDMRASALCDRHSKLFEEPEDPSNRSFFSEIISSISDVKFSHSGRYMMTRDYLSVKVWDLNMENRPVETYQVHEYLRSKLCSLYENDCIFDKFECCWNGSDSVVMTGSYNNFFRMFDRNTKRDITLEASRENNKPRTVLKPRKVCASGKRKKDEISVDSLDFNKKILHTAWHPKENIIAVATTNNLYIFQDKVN

[Mn+2] [Mn^2+, manganese]
Effect on AD P-tau dephosphorylation by PP-1 (PP-1 [1]): ↑ ↑
Effect on dephosphorylation of AD P-tau by PP-1 (PP-1 [1]): strongly activated
Concentration at which activation of AD P-tau dephosphorylation by PP-1 reached maximum (PP-1 [1]; data not shown): about 100 μM
Concentration at which activation of AD P-tau dephosphorylation by PP-1 was observed (PP-1 [1]; data not shown): 10 µM
Effect on activity of PP-2A2 towards AD P-tau (PP-2A2 [2]): markedly stimulated
Effect on AD P-tau dephosphorylation by PP-2A (PP-2A): ↑ ↑
Effect on PP-2A2 activity with [32P]phosphorylase as substrate (PP-2A2 [3]): stimulated PP-2A2 much more strongly than polylysine did
Effect on AD P-tau dephosphorylation by PP-2B (PP-2B): ↑ ↑
Activity of PP-2B towards AD P-tau with divalent cation in the presence of Ca2+ and calmodulin (PP-2B): lower
Magnitude of dephosphorylation of AD P-tau by PP-2B with the cation alone compared to inclusion of Ca2+ and calmodulin (PP-2B): lower
Concentration of metal ion for maximal dephosphorylation of AD P-tau by PP-2B (PP-2B): 100 µM
Concentration of metal ion that activated the dephosphorylation of AD P-tau by PP-2B (PP-2B): 10 FM
Metal dependence of PP-2C activity with [32P]phosphorylase kinase as substrate (PP-2C): dependent
Effect on activity of PP-2A1 towards AD P-tau (PP-2A1 [4]): markedly stimulated
Effect on PP-1 activity with [32P]phosphorylase kinase as substrate (PP-1 [5]): activated
Effect on PP-2A1 activity with [32P]phosphorylase as substrate (PP-2A1 [6]): almost no effect

poly-L-lysine [Polylysine]
Effect on activity of PP-2A2 towards AD P-tau (PP-2A2 [2]): only slightly activated
Effect on activity of PP-2A1 towards AD P-tau (PP-2A1 [4]): strongly activated
Effect on PP-2A1 activity with [32P]phosphorylase as substrate (PP-2A1 [6]): slightly stimulated

[Mg+2] [Mg^2+, reference compound]
Effect on dephosphorylation of AD P-tau by PP-1 (PP-1 [1]): inhibited
Effect on activity of PP-2A2 towards AD P-tau (PP-2A2 [2]): no detectable effect
Activity of PP-2B towards AD P-tau with divalent cation in the presence of Ca2+ and calmodulin (PP-2B): lower
Metal dependence of PP-2C activity with [32P]phosphorylase kinase as substrate (PP-2C): dependent
Effect on activity of PP-2A1 towards AD P-tau (PP-2A1 [4]): no detectable effect
Effect on PP-1 activity with [32P]phosphorylase kinase as substrate (PP-1 [5]): inhibited

[Ni+2] [Ni^2+]
Effect on AD P-tau dephosphorylation by PP-2B (PP-2B): ↑ ↑
Activity of PP-2B towards AD P-tau with divalent cation in the presence of Ca2+ and calmodulin (PP-2B): highest activity
Magnitude of dephosphorylation of AD P-tau by PP-2B with the cation alone compared to inclusion of Ca2+ and calmodulin (PP-2B): lower
Concentration of metal ion for maximal dephosphorylation of AD P-tau by PP-2B (PP-2B): 100 µM
Concentration of metal ion that activated the dephosphorylation of AD P-tau by PP-2B (PP-2B): 10 FM

[Ca+2] [Ca^2+]
Dephosphorylation of tau by PP-2B in the presence of Ca2+ and calmodulin alone (PP-2B; 1.0 mM CaCl2 and 1.0 μM calmodulin, no other cation): no apparent dephosphorylation

C=C1[C@@H](O)[C@@H]2O[C@]3(CC[C@H](/C=C/[C@@H](C)[C@@H]4CC(C)=C[C@@]5(O[C@H](C[C@@](C)(O)C(=O)O)CC[C@H]5O)O4)O3)CC[C@H]2O[C@@H]1[C@@H](O)C[C@H](C)[C@H]1O[C@@]2(CCCCO2)CC[C@H]1C [okadaic acid, reference compound]
Unmasking of Tau-1 epitope of AD P-tau by PP-2A in the presence of the inhibitor (PP-2A; 1.0 μM okadaic acid, 5.0 U/ml PP-2A2, 30° C., 60 min): did not unmask Tau-1 epitope
